In PubChem BioAssay (NCI):
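GI50 = concentration required for 50% inhibition of growth. Definition used: TGI = concentration required for complete inhibition of growth.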

How the values were obtained:
Test in all cases: DTP human tumour cell line panel, 384-well format
MCF7 breast = test system: MCF7 breast
HT29 colon = test system: HT29 colon
786-0 renal = test system: 786-0 renal
OVCAR-5 ovarian = test system: OVCAR-5 ovarian
CAKI-1 renal = test system: CAKI-1 renal
EKVX NSCLC = test system: EKVX NSCLC
MALME-3M melanoma = test system: MALME-3M melanoma
UACC-62 melanoma = test system: UACC-62 melanoma
K-562 leukemia = test system: K-562 leukemia
T-47D breast = test system: T-47D breast
HOP-62 NSCLC = test system: HOP-62 NSCLC
A549 NSCLC = test system: A549 NSCLC
IGROV1 ovarian = test system: IGROV1 ovarian

SMILES: O=S(=O)(c1ccc2c(c1)C(=NO)c1cc(S(=O)(=O)N3CCCCC3)ccc1-2)N1CCCCC1
- GI50 (MCF7 breast): 187 nM
- TGI (MCF7 breast): 334 nM
- GI50 (HT29 colon): 184 nM
- TGI (HT29 colon): 326 nM
- GI50 ([…]-0 renal): 223 nM
- TGI (786-0 renal): 525 nM
- GI50 (OVCAR-5 ovarian): 184 nM
- TGI (OVCAR-5 ovarian): 324 nM
- GI50 (CAKI-1 renal): 19 nM
- TGI (CAKI-1 renal): 35.2 nM
- GI50 (EKVX NSCLC): 115 nM
- TGI (EKVX NSCLC): 241 nM
- GI50 (MALME-3M melanoma): 179 nM
- TGI (MALME-3M melanoma): 321 nM
- GI50 (UACC-62 melanoma): 182 nM
- TGI (UACC-62 melanoma): 323 nM
- GI50 (K-562 leukemia): 170 nM
- TGI (K-562 leukemia): 313 nM
- GI50 (T-47D breast): 155 nM
- TGI (T-47D breast): 290 nM
- GI50 (HOP-62 NSCLC): 97.6 nM
- TGI (HOP-62 NSCLC): 216 nM
- GI50 (A549 NSCLC): 171 nM
- TGI (A549 NSCLC): 315 nM
- GI50 (IGROV1 ovarian): 162 nM
- TGI (IGROV1 ovarian): 306 nM
